Experimental data from ChEMBL document CHEMBL5291721, “A preclinical secondary pharmacology resource illuminates target-adverse drug reaction associations of marketed drugs” (Nat Commun, 2023).

Key:
[1] = target: T1, Muscarinic acetylcholine receptor M1 (Homo sapiens, UniProt P11229)
T1 sequence (P11229 whole entry): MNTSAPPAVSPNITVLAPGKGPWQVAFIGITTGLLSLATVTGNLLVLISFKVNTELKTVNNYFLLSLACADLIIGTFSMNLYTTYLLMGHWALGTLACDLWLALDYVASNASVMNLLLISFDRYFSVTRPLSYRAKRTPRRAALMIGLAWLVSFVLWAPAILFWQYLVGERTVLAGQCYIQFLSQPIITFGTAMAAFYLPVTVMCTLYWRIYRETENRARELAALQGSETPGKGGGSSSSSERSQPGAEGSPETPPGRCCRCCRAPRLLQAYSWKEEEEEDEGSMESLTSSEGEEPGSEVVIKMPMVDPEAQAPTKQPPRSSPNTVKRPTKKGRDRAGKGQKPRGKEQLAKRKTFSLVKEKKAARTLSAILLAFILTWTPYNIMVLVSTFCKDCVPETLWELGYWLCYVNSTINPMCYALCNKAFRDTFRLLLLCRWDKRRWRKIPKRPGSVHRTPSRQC

[2] = target: Synaptic vesicular amine transporter (Rattus norvegicus, UniProt Q01827); type: functional
[3] = target: 5-hydroxytryptamine receptor 2B (Homo sapiens, UniProt P41595)
Histamine H2 receptor = Histamine H2 receptor (Homo sapiens, UniProt P25021)
D(1A) dopamine receptor = D(1A) dopamine receptor (Homo sapiens, UniProt P21728)
B1 bradykinin receptor = target: T2, B1 bradykinin receptor (Homo sapiens, UniProt P46663)
T2 sequence (P46663 whole entry): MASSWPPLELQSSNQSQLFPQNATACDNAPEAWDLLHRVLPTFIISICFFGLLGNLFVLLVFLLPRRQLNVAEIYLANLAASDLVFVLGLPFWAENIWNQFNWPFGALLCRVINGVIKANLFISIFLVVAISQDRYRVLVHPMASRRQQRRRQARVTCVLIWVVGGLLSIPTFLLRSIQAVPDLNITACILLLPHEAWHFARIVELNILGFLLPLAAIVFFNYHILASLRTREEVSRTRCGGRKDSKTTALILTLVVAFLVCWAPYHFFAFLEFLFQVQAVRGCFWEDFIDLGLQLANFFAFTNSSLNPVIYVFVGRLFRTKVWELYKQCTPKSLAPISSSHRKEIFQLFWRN

Substance-P receptor = Substance-P receptor (Homo sapiens, UniProt P25103)
[4] = target: T3, Gastric inhibitory polypeptide receptor (Homo sapiens, UniProt P48546)
T3 sequence (P48546 whole entry): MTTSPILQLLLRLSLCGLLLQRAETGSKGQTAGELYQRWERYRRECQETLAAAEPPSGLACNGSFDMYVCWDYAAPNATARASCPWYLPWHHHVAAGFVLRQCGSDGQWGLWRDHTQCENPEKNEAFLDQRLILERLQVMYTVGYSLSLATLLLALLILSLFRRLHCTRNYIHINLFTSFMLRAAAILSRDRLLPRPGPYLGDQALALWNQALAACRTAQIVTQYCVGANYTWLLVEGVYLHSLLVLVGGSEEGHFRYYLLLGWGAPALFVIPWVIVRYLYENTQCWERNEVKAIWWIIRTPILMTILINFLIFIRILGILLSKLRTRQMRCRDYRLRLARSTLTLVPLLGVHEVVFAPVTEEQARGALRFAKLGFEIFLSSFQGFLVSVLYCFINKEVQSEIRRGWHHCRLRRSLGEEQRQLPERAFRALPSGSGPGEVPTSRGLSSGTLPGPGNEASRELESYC

[5] = target: T4, Endothelin receptor type B (Homo sapiens, UniProt P24530)
T4 sequence (P24530 whole entry): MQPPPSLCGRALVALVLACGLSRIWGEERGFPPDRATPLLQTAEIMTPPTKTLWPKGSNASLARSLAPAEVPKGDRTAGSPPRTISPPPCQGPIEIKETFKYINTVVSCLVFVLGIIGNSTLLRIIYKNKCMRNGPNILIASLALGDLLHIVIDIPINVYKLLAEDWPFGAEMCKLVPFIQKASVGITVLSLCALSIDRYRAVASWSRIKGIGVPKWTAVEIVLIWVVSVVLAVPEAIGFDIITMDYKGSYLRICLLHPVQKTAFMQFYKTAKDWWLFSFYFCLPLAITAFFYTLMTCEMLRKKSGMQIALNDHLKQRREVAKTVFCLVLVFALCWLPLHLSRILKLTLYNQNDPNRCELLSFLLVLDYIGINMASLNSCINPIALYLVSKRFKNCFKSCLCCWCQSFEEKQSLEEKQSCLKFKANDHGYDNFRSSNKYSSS

Acetylcholinesterase = Acetylcholinesterase (Homo sapiens, UniProt P22303); type: functional
Androgen receptor = target: T5, Androgen receptor (Rattus norvegicus, UniProt P15207)
T5 sequence (P15207 whole entry): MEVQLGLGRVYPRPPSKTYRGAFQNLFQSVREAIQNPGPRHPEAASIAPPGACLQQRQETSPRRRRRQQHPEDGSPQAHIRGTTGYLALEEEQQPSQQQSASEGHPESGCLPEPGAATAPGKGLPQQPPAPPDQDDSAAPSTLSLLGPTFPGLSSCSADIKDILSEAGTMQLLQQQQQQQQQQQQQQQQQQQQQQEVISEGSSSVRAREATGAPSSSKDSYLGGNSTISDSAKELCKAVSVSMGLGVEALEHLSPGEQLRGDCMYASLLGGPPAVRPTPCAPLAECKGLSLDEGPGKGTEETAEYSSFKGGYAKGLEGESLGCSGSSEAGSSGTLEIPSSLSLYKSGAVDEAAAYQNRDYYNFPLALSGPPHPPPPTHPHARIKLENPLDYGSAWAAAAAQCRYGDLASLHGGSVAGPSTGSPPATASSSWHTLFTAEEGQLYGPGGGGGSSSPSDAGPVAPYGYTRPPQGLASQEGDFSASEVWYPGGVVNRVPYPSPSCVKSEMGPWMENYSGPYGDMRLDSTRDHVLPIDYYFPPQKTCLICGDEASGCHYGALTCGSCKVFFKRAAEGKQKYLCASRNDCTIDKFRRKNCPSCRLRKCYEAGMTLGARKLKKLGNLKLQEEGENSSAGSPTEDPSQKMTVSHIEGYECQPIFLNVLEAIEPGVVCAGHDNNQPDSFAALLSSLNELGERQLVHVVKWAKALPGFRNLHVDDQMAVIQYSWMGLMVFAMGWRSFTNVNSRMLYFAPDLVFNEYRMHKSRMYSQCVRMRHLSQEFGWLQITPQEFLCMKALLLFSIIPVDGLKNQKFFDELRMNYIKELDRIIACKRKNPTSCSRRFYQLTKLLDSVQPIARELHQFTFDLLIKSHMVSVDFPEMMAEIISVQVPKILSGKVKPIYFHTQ
Further: assay procedure not described here.

Chain of Histamine H2 receptor (P25021 whole entry): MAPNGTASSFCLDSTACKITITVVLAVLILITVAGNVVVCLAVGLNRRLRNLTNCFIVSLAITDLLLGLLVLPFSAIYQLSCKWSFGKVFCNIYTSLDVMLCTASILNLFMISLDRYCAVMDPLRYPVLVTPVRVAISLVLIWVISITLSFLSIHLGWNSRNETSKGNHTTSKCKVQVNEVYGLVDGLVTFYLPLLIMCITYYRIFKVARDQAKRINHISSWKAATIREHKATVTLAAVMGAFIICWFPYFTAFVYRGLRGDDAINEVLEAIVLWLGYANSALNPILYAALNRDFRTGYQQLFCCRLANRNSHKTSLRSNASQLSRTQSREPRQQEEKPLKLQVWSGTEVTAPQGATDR
Chain of Acetylcholinesterase (P22303 whole entry): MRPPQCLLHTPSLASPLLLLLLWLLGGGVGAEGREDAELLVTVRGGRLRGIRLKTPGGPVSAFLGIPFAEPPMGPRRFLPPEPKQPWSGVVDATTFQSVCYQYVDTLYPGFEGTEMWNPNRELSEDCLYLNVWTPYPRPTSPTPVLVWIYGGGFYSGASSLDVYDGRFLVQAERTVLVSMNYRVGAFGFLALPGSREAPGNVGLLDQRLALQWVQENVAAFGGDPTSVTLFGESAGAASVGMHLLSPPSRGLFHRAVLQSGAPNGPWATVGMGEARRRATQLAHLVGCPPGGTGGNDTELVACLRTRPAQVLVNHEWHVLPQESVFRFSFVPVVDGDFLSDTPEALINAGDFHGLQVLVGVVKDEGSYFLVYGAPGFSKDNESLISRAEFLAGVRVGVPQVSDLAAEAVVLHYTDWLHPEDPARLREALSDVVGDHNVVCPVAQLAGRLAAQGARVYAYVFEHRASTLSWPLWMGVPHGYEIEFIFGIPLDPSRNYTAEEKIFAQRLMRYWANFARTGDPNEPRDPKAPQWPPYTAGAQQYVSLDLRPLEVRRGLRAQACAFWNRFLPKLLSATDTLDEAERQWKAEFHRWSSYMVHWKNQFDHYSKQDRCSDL
Chain of 5-hydroxytryptamine receptor 2B (P41595 whole entry): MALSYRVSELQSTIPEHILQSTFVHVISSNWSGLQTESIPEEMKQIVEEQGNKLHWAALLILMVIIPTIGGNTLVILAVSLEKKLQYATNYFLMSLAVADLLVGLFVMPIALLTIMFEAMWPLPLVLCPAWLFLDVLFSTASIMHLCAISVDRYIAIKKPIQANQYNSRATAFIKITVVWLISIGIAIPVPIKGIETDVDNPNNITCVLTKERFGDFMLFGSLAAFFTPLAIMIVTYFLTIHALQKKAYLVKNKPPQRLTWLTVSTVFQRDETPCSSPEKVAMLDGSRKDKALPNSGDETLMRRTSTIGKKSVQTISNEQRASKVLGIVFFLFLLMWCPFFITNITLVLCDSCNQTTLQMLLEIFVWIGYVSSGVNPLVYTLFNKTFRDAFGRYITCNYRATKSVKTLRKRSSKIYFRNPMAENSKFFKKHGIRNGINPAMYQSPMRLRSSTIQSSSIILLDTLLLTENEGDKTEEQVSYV
Chain of D(1A) dopamine receptor (P21728 whole entry): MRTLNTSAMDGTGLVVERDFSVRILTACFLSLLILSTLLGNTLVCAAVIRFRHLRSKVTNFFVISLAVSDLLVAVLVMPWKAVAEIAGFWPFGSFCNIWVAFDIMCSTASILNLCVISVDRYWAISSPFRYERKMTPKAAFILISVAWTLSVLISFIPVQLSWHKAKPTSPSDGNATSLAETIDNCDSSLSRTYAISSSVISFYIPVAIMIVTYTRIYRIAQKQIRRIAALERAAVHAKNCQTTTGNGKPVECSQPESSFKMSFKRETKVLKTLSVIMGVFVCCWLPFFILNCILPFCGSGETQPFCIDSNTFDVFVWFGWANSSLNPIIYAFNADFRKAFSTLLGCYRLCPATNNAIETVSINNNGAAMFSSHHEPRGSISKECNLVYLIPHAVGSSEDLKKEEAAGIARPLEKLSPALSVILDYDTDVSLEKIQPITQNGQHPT
Chain of Synaptic vesicular amine transporter (Q01827 whole entry): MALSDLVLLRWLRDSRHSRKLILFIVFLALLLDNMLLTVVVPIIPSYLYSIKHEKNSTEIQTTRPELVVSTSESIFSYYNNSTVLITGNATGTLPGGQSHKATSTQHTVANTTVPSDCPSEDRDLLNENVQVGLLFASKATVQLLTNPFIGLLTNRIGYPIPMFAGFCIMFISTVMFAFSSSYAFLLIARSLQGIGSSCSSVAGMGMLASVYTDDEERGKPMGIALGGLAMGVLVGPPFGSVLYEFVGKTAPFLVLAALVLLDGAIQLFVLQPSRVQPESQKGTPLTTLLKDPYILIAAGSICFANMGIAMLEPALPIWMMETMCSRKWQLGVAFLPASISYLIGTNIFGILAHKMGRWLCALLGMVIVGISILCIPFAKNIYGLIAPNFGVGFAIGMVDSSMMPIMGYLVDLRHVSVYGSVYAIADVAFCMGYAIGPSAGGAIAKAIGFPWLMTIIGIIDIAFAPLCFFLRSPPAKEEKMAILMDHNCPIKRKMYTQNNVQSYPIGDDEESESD
Chain of Substance-P receptor (P25103 whole entry): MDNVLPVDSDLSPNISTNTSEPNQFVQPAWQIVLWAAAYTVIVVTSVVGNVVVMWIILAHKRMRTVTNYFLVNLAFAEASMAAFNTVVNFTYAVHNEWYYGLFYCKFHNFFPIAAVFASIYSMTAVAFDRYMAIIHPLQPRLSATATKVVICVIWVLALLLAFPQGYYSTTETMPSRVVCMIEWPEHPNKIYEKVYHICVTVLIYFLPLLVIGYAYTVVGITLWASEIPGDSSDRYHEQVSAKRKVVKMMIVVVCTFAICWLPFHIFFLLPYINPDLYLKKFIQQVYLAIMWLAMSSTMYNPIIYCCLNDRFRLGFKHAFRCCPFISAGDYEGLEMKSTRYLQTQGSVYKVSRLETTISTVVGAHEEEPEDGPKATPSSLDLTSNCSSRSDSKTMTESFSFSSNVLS

## C#CCN(C)Cc1ccccc1 [PARGYLINE]
[1]
  AC50: > 30 µM

## CCCCCCO[C@@H](C)c1cccc(-c2csc(NC(=O)c3cc(Cl)c(/C=C(\C)C(=O)O)c(Cl)c3)n2)c1OC [LUSUTROMBOPAG]
[2]
  AC50: 4.1 µM
[1]
  AC50: > 30 µM

## N#Cc1ccnc(N2C(=O)CC[C@H]2C(=O)N(c2cncc(F)c2)[C@H](C(=O)NC2CC(F)(F)C2)c2ccccc2Cl)c1 [IVOSIDENIB]
[2]
  AC50: > 30 µM

## CC(=O)SCC(Cc1ccccc1)C(=O)NCC(=O)OCc1ccccc1 (stereo not given) [RACECADOTRIL]
[3]
  AC50: > 10 µM
Histamine H2 receptor
  AC50: > 10 µM
D(1A) dopamine receptor
  AC50: > 10 µM

## OCCOCCN1CCN(C(c2ccccc2)c2ccc(Cl)cc2)CC1 (stereo not given) [HYDROXYZINE]
[3]
  AC50: 0.157 µM
B1 bradykinin receptor
  AC50: > 30 µM
Substance-P receptor
  AC50: > 10 µM
[4]
  AC50: > 30 µM
Histamine H2 receptor
  AC50: 0.188 µM
D(1A) dopamine receptor
  AC50: > 10 µM
[5]
  AC50: > 30 µM

## OC[C@H]1NC[C@H](O)[C@@H](O)[C@H]1O
[2]
  AC50: > 30 µM

## CN1CC2c3ccccc3Oc3ccc(Cl)cc3C2C1 (stereo not given) [ASENAPINE]
Acetylcholinesterase
  AC50: > 30 µM
[2]
  AC50: 1.05 µM

## O=c1[nH]c2ccccc2n1CCN1CCN(c2cccc(C(F)(F)F)c2)CC1 [FLIBANSERIN]
[2]
  AC50: 0.072 µM

## CCOC(=O)[C@H](CCc1ccccc1)N[C@@H](C)C(=O)N1Cc2ccccc2C[C@H]1C(=O)O
[3]
  AC50: > 10 µM
B1 bradykinin receptor
  AC50: > 30 µM
Substance-P receptor
  AC50: > 10 µM
[4]
  AC50: > 30 µM
Histamine H2 receptor
  AC50: > 10 µM
D(1A) dopamine receptor
  AC50: > 10 µM
[5]
  AC50: > 30 µM

## Cc1c(C)c2c(c(C)c1O)CCC(C)(COc1ccc(CC3SC(=O)NC3=O)cc1)O2 (stereo not given) [TROGLITAZONE]
B1 bradykinin receptor
  AC50: > 30 µM
[4]
  AC50: > 30 µM
Androgen receptor
  AC50: 3.57 µM
[5]
  AC50: > 30 µM

## C[C@H](CCC(=O)O)[C@H]1CC[C@H]2[C@@H]3[C@H](O)C[C@@H]4C[C@H](O)CC[C@]4(C)[C@H]3CC[C@]12C [CHENODIOL]
Acetylcholinesterase
  AC50: > 30 µM

## c1cnc2cc3c(cc2n1)[C@@H]1CNC[C@H]3C1 [VARENICLINE]
Acetylcholinesterase
  AC50: > 30 µM

## CC(=O)Oc1ccccc1C(=O)O [ASPIRIN]
[3]
  AC50: > 10 µM
B1 bradykinin receptor
  AC50: > 30 µM
Substance-P receptor
  AC50: > 10 µM
[4]
  AC50: > 30 µM
Histamine H2 receptor
  AC50: > 10 µM
Androgen receptor
  AC50: > 30 µM
D(1A) dopamine receptor
  AC50: > 10 µM
[5]
  AC50: > 30 µM

## C[C@H](Cn1cnc2c(N)ncnc21)OCP(=O)(O)O [TENOFOVIR ANHYDROUS]
Androgen receptor
  AC50: > 30 µM

## C=CC1=C(C(=O)O)N2C(=O)[C@@H](NC(=O)/C(=N\O)c3csc(N)n3)[C@H]2SC1
Androgen receptor
  AC50: > 30 µM

## C[C@H](Nc1ncnc2[nH]cnc12)c1cc2cccc(Cl)c2c(=O)n1-c1ccccc1 [DUVELISIB]
Acetylcholinesterase
  AC50: > 30 µM
[1]
  AC50: > 30 µM

## CN(C)CCCC1(c2ccc(F)cc2)OCc2cc(C#N)ccc21 (stereo not given) [CITALOPRAM]
[3]
  AC50: 0.273 µM
B1 bradykinin receptor
  AC50: > 30 µM
Substance-P receptor
  AC50: > 10 µM
[4]
  AC50: > 30 µM
[5]
  AC50: > 30 µM

## C[C@H](CS)C(=O)N1CCC[C@H]1C(=O)O [CAPTOPRIL]
Androgen receptor
  AC50: > 30 µM

## CCCCCCCC/C=C\CCCCCCCC(=O)O [OLEIC ACID]
[2]
  AC50: 4.7 µM

## O=C(O)COC(=O)Cc1ccccc1Nc1c(Cl)cccc1Cl [ACECLOFENAC]
Androgen receptor
  AC50: > 30 µM

## CN(C)CCC=C1c2ccccc2CCc2ccccc21 [AMITRIPTYLINE]
B1 bradykinin receptor
  AC50: > 30 µM
Substance-P receptor
  AC50: > 10 µM
[4]
  AC50: > 30 µM
D(1A) dopamine receptor
  AC50: 0.452 µM
[5]
  AC50: > 30 µM

## CCC[C@@]1(CCc2ccccc2)CC(O)=C([C@H](CC)c2cccc(NS(=O)(=O)c3ccc(C(F)(F)F)cn3)c2)C(=O)O1
Acetylcholinesterase
  AC50: > 30 µM

## Nc1nnc(-c2cccc(Cl)c2Cl)c(N)n1 [LAMOTRIGINE]
[3]
  AC50: > 10 µM
[2]
  AC50: 18 µM
B1 bradykinin receptor
  AC50: > 30 µM
Substance-P receptor
  AC50: > 10 µM
[4]
  AC50: > 30 µM
Histamine H2 receptor
  AC50: > 10 µM
D(1A) dopamine receptor
  AC50: > 10 µM
[5]
  AC50: > 30 µM

## CO[C@@H]1[C@@H](OC(N)=O)[C@@H](O)[C@H](Oc2ccc3c(O)c(NC(=O)c4ccc(O)c(CC=C(C)C)c4)c(=O)oc3c2C)OC1(C)C [NOVOBIOCIN]
Acetylcholinesterase
  AC50: > 30 µM

## CC#CC(=O)N1CCC[C@H]1c1nc(-c2ccc(C(=O)Nc3ccccn3)cc2)c2c(N)nccn12 [ACALABRUTINIB]
[1]
  AC50: > 30 µM

## Cc1ccc(C(C)C)c(O)c1 [THYMOL]
[2]
  AC50: 25 µM

## C[C@@H](O)[C@H]1C(=O)N2C(C(=O)O)=C(SCCN=CN)C[C@H]12 [IMIPENEM ANHYDROUS]
Acetylcholinesterase
  AC50: > 300 µM

## O=C(Cc1cccs1)N[C@@H]1C(=O)N2C(C(=O)[O-])=C(C[n+]3ccccc3)CS[C@H]12 [CEPHALORIDINE]
[1]
  AC50: > 30 µM

## NCC1(CC(=O)O)CCCCC1 [GABAPENTIN]
Acetylcholinesterase
  AC50: > 30 µM
[3]
  AC50: > 10 µM
B1 bradykinin receptor
  AC50: > 30 µM
Substance-P receptor
  AC50: > 10 µM
[4]
  AC50: > 30 µM
Histamine H2 receptor
  AC50: > 10 µM
D(1A) dopamine receptor
  AC50: > 10 µM
[5]
  AC50: > 30 µM

## CN(C)CCc1c[nH]c2ccc(CS(=O)(=O)N3CCCC3)cc12 [ALMOTRIPTAN]
[3]
  AC50: 0.51 µM

## C[C@]12CCC(=O)C=C1CC[C@H]1[C@@H]3CC[C@](O)(C(=O)CO)[C@@]3(C)C[C@H](O)[C@@]12F [FLUDROCORTISONE]
[3]
  AC50: > 10 µM
B1 bradykinin receptor
  AC50: > 30 µM
[4]
  AC50: > 30 µM
Histamine H2 receptor
  AC50: > 10 µM
D(1A) dopamine receptor
  AC50: > 10 µM
[5]
  AC50: > 30 µM

## O=C(O)[C@@H](S)[C@@H](S)C(=O)O
[1]
  AC50: > 30 µM

## O=C1[C@@H]2[C@H]3CC[C@H](C3)[C@@H]2C(=O)N1C[C@@H]1CCCC[C@H]1CN1CCN(c2nsc3ccccc23)CC1 [LURASIDONE]
Acetylcholinesterase
  AC50: 1.3 µM
[2]
  AC50: 0.0699 µM

## Cn1cnc2c(F)c(Nc3ccc(Br)cc3F)c(C(=O)NOCCO)cc21 [BINIMETINIB]
Acetylcholinesterase
  AC50: > 30 µM
[2]
  AC50: > 30 µM
